# Values of other authors, collected in publication PMC9516332 (Frontiers in Oncology, 2022).
# Experiments:
# [1] = target: panel of 255 wild-type kinases (Homo sapiens, UniProt P11362); conditions: kinase FGFR1; 1 µmol/L single concentration; ref DOI: 10.1371/journal.pone.0092146; cited from earlier work
# [2] = target: panel of 255 wild-type kinases (Homo sapiens, UniProt P28482); conditions: kinase Erk2; 1 µmol/L single concentration; ref DOI: 10.1371/journal.pone.0092146; cited from earlier work
# [3] = target: panel of 255 wild-type kinases (Homo sapiens, UniProt P29317); conditions: kinase EPHA2; 1 µmol/L single concentration; ref DOI: 10.1371/journal.pone.0092146; cited from earlier work
# [4] = target: T1, panel of 255 wild-type kinases (Homo sapiens, UniProt P42680); conditions: kinase TEC; 1 µmol/L single concentration; ref DOI: 10.1371/journal.pone.0092146; cited from earlier work
# T1 sequence (P42680 1-631): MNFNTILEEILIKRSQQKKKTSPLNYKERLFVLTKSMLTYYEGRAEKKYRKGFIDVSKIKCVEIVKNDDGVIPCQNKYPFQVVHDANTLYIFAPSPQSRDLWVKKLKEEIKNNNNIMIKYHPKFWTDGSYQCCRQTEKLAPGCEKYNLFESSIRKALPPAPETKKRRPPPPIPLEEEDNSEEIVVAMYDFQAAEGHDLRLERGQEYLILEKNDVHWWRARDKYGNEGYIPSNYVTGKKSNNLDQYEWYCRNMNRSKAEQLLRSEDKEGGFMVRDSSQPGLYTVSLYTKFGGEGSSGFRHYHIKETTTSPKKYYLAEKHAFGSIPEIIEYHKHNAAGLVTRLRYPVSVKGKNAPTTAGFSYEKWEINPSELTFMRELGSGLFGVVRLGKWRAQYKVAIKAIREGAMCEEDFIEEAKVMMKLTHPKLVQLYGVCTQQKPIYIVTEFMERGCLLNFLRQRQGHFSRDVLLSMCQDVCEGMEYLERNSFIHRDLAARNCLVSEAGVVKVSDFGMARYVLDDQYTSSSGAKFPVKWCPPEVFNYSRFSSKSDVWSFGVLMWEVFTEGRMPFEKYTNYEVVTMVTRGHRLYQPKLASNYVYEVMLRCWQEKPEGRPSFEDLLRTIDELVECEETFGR
# [5] = target: panel of 255 wild-type kinases (Homo sapiens, UniProt Q13882); conditions: BRK kinase assay; 1 µmol/L single concentration; ref DOI: 10.1371/journal.pone.0092146; cited from earlier work
# [6] = target: T2, panel of 255 wild-type kinases (Homo sapiens, UniProt Q14164); conditions: kinase IKKε; 1 µmol/L single concentration; ref DOI: 10.1371/journal.pone.0092146; cited from earlier work
# T2 sequence (Q14164 1-716): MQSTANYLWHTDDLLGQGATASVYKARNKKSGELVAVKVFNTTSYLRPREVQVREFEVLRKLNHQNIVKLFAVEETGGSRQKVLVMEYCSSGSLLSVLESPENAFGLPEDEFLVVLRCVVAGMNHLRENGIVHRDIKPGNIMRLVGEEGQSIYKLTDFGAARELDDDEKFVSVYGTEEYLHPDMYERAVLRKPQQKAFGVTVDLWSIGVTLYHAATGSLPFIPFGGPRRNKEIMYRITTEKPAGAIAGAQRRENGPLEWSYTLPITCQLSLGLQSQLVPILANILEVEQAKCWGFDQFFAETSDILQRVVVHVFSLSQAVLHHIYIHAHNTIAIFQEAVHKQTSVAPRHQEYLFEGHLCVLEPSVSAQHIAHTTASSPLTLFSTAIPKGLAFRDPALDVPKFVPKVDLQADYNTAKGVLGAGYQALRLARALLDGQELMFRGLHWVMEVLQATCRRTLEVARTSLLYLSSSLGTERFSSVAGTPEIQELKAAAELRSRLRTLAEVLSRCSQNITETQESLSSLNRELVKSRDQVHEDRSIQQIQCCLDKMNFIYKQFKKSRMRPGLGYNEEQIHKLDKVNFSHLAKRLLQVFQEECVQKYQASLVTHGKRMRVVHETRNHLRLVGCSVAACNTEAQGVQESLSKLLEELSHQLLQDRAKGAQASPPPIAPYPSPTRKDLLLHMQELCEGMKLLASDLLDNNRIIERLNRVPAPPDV
# [7] = target: T3, panel of 255 wild-type kinases (Homo sapiens, UniProt Q8TDC3); conditions: BRSK1 kinase assay; 1 µmol/L single concentration; ref DOI: 10.1371/journal.pone.0092146; cited from earlier work
# T3 sequence (Q8TDC3 1-778): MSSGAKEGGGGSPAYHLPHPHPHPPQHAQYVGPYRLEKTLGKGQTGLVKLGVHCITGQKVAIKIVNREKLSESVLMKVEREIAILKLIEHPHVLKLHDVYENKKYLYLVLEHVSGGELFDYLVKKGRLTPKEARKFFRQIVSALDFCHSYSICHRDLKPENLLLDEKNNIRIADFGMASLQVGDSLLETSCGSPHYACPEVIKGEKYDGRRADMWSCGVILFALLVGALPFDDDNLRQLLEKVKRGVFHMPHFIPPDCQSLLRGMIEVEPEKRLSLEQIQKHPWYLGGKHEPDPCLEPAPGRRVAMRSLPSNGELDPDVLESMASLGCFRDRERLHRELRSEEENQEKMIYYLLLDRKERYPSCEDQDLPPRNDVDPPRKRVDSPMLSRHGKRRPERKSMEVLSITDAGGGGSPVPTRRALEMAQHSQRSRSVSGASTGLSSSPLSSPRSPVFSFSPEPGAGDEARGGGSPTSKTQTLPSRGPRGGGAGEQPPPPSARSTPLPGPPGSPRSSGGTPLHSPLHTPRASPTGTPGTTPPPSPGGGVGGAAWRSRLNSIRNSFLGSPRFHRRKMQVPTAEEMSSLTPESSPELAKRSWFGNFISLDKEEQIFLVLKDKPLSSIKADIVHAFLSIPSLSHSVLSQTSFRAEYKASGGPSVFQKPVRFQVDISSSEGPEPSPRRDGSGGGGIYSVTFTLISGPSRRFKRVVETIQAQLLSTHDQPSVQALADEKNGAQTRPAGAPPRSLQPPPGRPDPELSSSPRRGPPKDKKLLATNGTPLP
# [8] = target: panel of 255 wild-type kinases (Homo sapiens, UniProt Q9BYP7); conditions: kinase WNK3; 1 µmol/L single concentration; ref DOI: 10.1371/journal.pone.0092146; cited from earlier work
compound,measurement,setting,value
C[C@@H](Oc1cc(-c2cnn(C3CCNCC3)c2)cnc1N)c1c(Cl)ccc(F)c1Cl [crizotinib],"%-inhibition at 1 µmol/L, FGFR1",[1],17%
same,"%-inhibition at 1 µmol/L, Erk2",[2],-4.58%
same,"%-inhibition at 1 µmol/L, EPHA2",[3],86%
same,"%-inhibition at 1 µmol/L, TEC",[4],1.53%
same,%-inhibition BRK,[5],15%
same,"%-inhibition at 1 µmol/L, IKKε",[6],7.49%
same,%-inhibition BRSK1,[7],12%
same,"%-inhibition at 1 µmol/L, WNK3",[8],-8%
